This note sets out measurements from US7226944B2, “Taxanes having a C7 carbonate substituent” (FSU Research Foundation, Inc., priority 2000, dated 2007).

The experiment relates to HCT116. Kind of experiment: In vitro cytotoxicity measured by the cell colony formation assay. The class given is cell-based. The conditions noted are these: HCT116 cells; drug concentration producing 50% inhibition of colony formation; 72 h with drug at 37° C., colonies counted after 7 days; read-out: IN VITRO ID 50 (nm) HCT116. The procedure:
Four hundred cells (HCT116) were plated in 60 mm Petri dishes containing 2.7 mL of medium (modified McCoy's 5a medium containing 10% fetal bovine serum and 100 units/mL penicillin and 100 µg/mL streptomycin). The cells were incubated in a CO2 incubator at 37° C. for 5 h for attachment to the bottom of Petri dishes. The compounds identified in Example 2 were made up fresh in medium at ten times the final concentration, and then 0.3 mL of this stock solution was added to the 2.7 mL of medium in the dish. The cells were then incubated with drugs for 72 h at 37° C. At the end of incubation the drug-containing media were decanted, the dishes were rinsed with 4 mL of Hank's Balance Salt Solution (HBSS), 5 mL of fresh medium was added, and the dishes were returned to the incubator for colony formation. The cell colonies were counted using a colony counter after incubation for 7 days.
Consider `COC(=O)O[C@H]1C[C@H]2OC[C@@]2(OC(C)=O)C2[C@H](OC(=O)c3ccccc3)[C@]3(O)C[C@H](OC(=O)[C@H](O)[C@@H](NC(=O)OC(C)C)c4cccs4)C(C)=C([C@@H](O)C(=O)[C@@]21C)C3(C)C` (some centres unmarked) [Compound 4144], for which the IC50 is < 1 nM.

`CCOC(=O)O[C@H]1C[C@H]2OC[C@@]2(OC(C)=O)C2[C@H](OC(=O)c3ccccc3)[C@]3(O)C[C@H](OC(=O)[C@H](O)[C@@H](NC(=O)OC(C)C)c4cccs4)C(C)=C([C@@H](O)C(=O)[C@@]21C)C3(C)C` (some centres unmarked) [Compound 4151]: the IC50 is < 1 nM.

Consider `CCOC(=O)O[C@H]1C[C@H]2OC[C@@]2(OC(C)=O)C2[C@H](OC(=O)c3ccccc3)[C@]3(O)C[C@H](OC(=O)[C@H](O)[C@@H](NC(=O)C=C(C)C)c4cccs4)C(C)=C([C@@H](O)C(=O)[C@@]21C)C3(C)C` (some centres unmarked) [Compound 4164], for which the IC50 was < 1 nM. For `CCOC(=O)O[C@H]1C[C@H]2OC[C@@]2(OC(C)=O)C2[C@H](OC(=O)c3ccccc3)[C@]3(O)C[C@H](OC(=O)[C@H](O)[C@@H](NC(=O)c4ccccc4)c4cccs4)C(C)=C([C@@H](O)C(=O)[C@@]21C)C3(C)C` (some centres unmarked) [Compound 4188], the IC50 was < 10 nM.

For the compound `COC(=O)O[C@H]1C[C@H]2OC[C@@]2(OC(C)=O)C2[C@H](OC(=O)c3ccccc3)[C@]3(O)C[C@H](OC(=O)[C@H](O)[C@@H](NC(=O)c4ccco4)c4cccs4)C(C)=C([C@@H](O)C(=O)[C@@]21C)C3(C)C` (some centres unmarked) [Compound 4222], the IC50 is < 1 nM. The value for `CCOC(=O)O[C@H]1C[C@H]2OC[C@@]2(OC(C)=O)C2[C@H](OC(=O)c3ccccc3)[C@]3(O)C[C@H](OC(=O)[C@H](O)[C@@H](NC(=O)OC(C)(C)C)c4cccs4)C(C)=C([C@@H](O)C(=O)[C@@]21C)C3(C)C` (some centres unmarked) [Compound 4234] was < 1 nM; that for `COC(=O)O[C@H]1C[C@H]2OC[C@@]2(OC(C)=O)C2[C@H](OC(=O)c3ccccc3)[C@]3(O)C[C@H](OC(=O)[C@H](O)[C@@H](NC(=O)C=C(C)C)c4cccs4)C(C)=C([C@@H](O)C(=O)[C@@]21C)C3(C)C` (some centres unmarked) [Compound 4244] was < 1 nM; that for `CCOC(=O)O[C@H]1C[C@H]2OC[C@@]2(OC(C)=O)C2[C@H](OC(=O)c3ccccc3)[C@]3(O)C[C@H](OC(=O)[C@H](O)[C@@H](NC(=O)c4ccco4)c4cccs4)C(C)=C([C@@H](O)C(=O)[C@@]21C)C3(C)C` (some centres unmarked) [Compound 4304] was < 10 nM.

Turning to `COC(=O)O[C@H]1C[C@H]2OC[C@@]2(OC(C)=O)C2[C@H](OC(=O)c3ccccc3)[C@]3(O)C[C@H](OC(=O)[C@H](O)[C@@H](NC(=O)OCC(C)C)c4cccs4)C(C)=C([C@@H](O)C(=O)[C@@]21C)C3(C)C` (some centres unmarked) [Compound 4355], the IC50 is < 1 nM. The same measure for `CCOC(=O)O[C@H]1C[C@H]2OC[C@@]2(OC(C)=O)C2[C@H](OC(=O)c3ccccc3)[C@]3(O)C[C@H](OC(=O)[C@H](O)[C@@H](NC(=O)OCC(C)C)c4cccs4)C(C)=C([C@@H](O)C(=O)[C@@]21C)C3(C)C` (some centres unmarked) [Compound 4363]: < 10 nM. With `COC(=O)O[C@H]1C[C@H]2OC[C@@]2(OC(C)=O)C2[C@H](OC(=O)c3ccccc3)[C@]3(O)C[C@H](OC(=O)[C@H](O)[C@@H](NC(=O)c4ccccc4)c4cccs4)C(C)=C([C@@H](O)C(=O)[C@@]21C)C3(C)C` (some centres unmarked) [Compound 4411], the IC50 was < 1 nM. Take `COC(=O)O[C@H]1C[C@H]2OC[C@@]2(OC(C)=O)C2[C@H](OC(=O)c3ccccc3)[C@]3(O)C[C@H](OC(=O)[C@H](O)[C@@H](NC(=O)c4cccs4)c4cccs4)C(C)=C([C@@H](O)C(=O)[C@@]21C)C3(C)C` (some centres unmarked) [Compound 4424]: the IC50 is < 1 nM.

`COC(=O)O[C@H]1C[C@H]2OC[C@@]2(OC(C)=O)C2[C@H](OC(=O)c3ccccc3)[C@]3(O)C[C@H](OC(=O)[C@H](O)[C@@H](NC(=O)OC(C)(C)C)c4ccoc4)C(C)=C([C@@H](O)C(=O)[C@@]21C)C3(C)C` (some centres unmarked) [Compound 4434]: the IC50 is < 1 nM. With `CCOC(=O)O[C@H]1C[C@H]2OC[C@@]2(OC(C)=O)C2[C@H](OC(=O)c3ccccc3)[C@]3(O)C[C@H](OC(=O)[C@H](O)[C@@H](NC(=O)c4cccs4)c4cccs4)C(C)=C([C@@H](O)C(=O)[C@@]21C)C3(C)C` (some centres unmarked) [Compound 4455], the IC50 is < 1 nM.

With `CCOC(=O)O[C@H]1C[C@H]2OC[C@@]2(OC(C)=O)C2[C@H](OC(=O)c3ccccc3)[C@]3(O)C[C@H](OC(=O)[C@H](O)[C@@H](NC(=O)OC(C)(C)C)c4ccoc4)C(C)=C([C@@H](O)C(=O)[C@@]21C)C3(C)C` (some centres unmarked) [Compound 4464], the IC50 is < 1 nM. The same measure for `COC(=O)O[C@H]1C[C@H]2OC[C@@]2(OC(C)=O)C2[C@H](OC(=O)c3ccccc3)[C@]3(O)C[C@H](OC(=O)[C@H](O)[C@@H](NC(=O)OC(C)(C)C)c4ccsc4)C(C)=C([C@@H](O)C(=O)[C@@]21C)C3(C)C` (some centres unmarked) [Compound 4474]: < 1 nM; for `COC(=O)O[C@H]1C[C@H]2OC[C@@]2(OC(C)=O)C2[C@H](OC(=O)c3ccccc3)[C@]3(O)C[C@H](OC(=O)[C@H](O)[C@H](C=C(C)C)NC(=O)OC(C)(C)C)C(C)=C([C@@H](O)C(=O)[C@@]21C)C3(C)C` (some centres unmarked) [Compound 4484]: < 1 nM. Consider `CCOC(=O)O[C@H]1C[C@H]2OC[C@@]2(OC(C)=O)C2[C@H](OC(=O)c3ccccc3)[C@]3(O)C[C@H](OC(=O)[C@H](O)[C@@H](NC(=O)OC(C)(C)C)c4ccsc4)C(C)=C([C@@H](O)C(=O)[C@@]21C)C3(C)C` (some centres unmarked) [Compound 4500], for which the IC50 was < 1 nM. The same measure for `CC(=O)O[C@H]1C[C@H]2OC[C@@]2(OC(C)=O)C2[C@H](OC(=O)c3ccccc3)[C@]3(O)C[C@H](OC(=O)[C@H](O)[C@@H](NC(=O)OCC(C)C)c4ccsc4)C(C)=C([C@@H](O)C(=O)[C@@]21C)C3(C)C` (some centres unmarked) [Compound 4515]: < 10 nM; for `CCOC(=O)O[C@H]1C[C@H]2OC[C@@]2(OC(C)=O)C2[C@H](OC(=O)c3ccccc3)[C@]3(O)C[C@H](OC(=O)[C@H](O)[C@H](C=C(C)C)NC(=O)OC(C)(C)C)C(C)=C([C@@H](O)C(=O)[C@@]21C)C3(C)C` (some centres unmarked) [Compound 4524]: < 1 nM. As to `COC(=O)O[C@H]1C[C@H]2OC[C@@]2(OC(C)=O)C2[C@H](OC(=O)c3ccccc3)[C@]3(O)C[C@H](OC(=O)[C@H](O)[C@@H](NC(=O)OC(C)(C)C)c4ccco4)C(C)=C([C@@H](O)C(=O)[C@@]21C)C3(C)C` (some centres unmarked) [Compound 4533], the IC50 was < 1 nM. On to `CC(=O)O[C@H]1C[C@H]2OC[C@@]2(OC(C)=O)C2[C@H](OC(=O)c3ccccc3)[C@]3(O)C[C@H](OC(=O)[C@H](O)[C@@H](NC(=O)OC(C)(C)C)C4CC4)C(C)=C([C@@H](O)C(=O)[C@@]21C)C3(C)C` (some centres unmarked) [Compound 4555], for which the IC50 is < 1 nM. For the compound `COC(=O)O[C@H]1C[C@H]2OC[C@@]2(OC(C)=O)C2[C@H](OC(=O)c3ccccc3)[C@]3(O)C[C@H](OC(=O)[C@H](O)[C@@H](NC(=O)OC(C)(C)C)C4CC4)C(C)=C([C@@H](O)C(=O)[C@@]21C)C3(C)C` (some centres unmarked) [Compound 4566], the IC50 is < 1 nM. In the case of `COC(=O)O[C@H]1C[C@H]2OC[C@@]2(OC(C)=O)C2[C@H](OC(=O)c3ccccc3)[C@]3(O)C[C@H](OC(=O)[C@H](O)[C@@H](NC(=O)OCC(C)C)c4ccoc4)C(C)=C([C@@H](O)C(=O)[C@@]21C)C3(C)C` (some centres unmarked) [Compound 4584], the IC50 was < 10 nM. As to `CCOC(=O)O[C@H]1C[C@H]2OC[C@@]2(OC(C)=O)C2[C@H](OC(=O)c3ccccc3)[C@]3(O)C[C@H](OC(=O)[C@H](O)[C@@H](NC(=O)OCC(C)C)c4ccoc4)C(C)=C([C@@H](O)C(=O)[C@@]21C)C3(C)C` (some centres unmarked) [Compound 4624], the IC50 is < 10 nM. The same measure for `COC(=O)O[C@H]1C[C@H]2OC[C@@]2(OC(C)=O)C2[C@H](OC(=O)c3ccccc3)[C@]3(O)C[C@H](OC(=O)[C@H](O)[C@H](C=C(C)C)NC(=O)OCC(C)C)C(C)=C([C@@H](O)C(=O)[C@@]21C)C3(C)C` (some centres unmarked) [Compound 4644]: < 10 nM; for `COC(=O)O[C@H]1C[C@H]2OC[C@@]2(OC(C)=O)C2[C@H](OC(=O)c3ccccc3)[C@]3(O)C[C@H](OC(=O)[C@H](O)[C@@H](NC(=O)OCC(C)C)c4ccco4)C(C)=C([C@@H](O)C(=O)[C@@]21C)C3(C)C` (some centres unmarked) [Compound 4656]: < 1 nM; for `COC(=O)O[C@H]1C[C@H]2OC[C@@]2(OC(C)=O)C2[C@H](OC(=O)c3ccccc3)[C@]3(O)C[C@H](OC(=O)[C@H](O)[C@@H](NC(=O)OCC(C)C)c4ccsc4)C(C)=C([C@@H](O)C(=O)[C@@]21C)C3(C)C` (some centres unmarked) [Compound 4674]: < 1 nM. The value for `CCOC(=O)O[C@H]1C[C@H]2OC[C@@]2(OC(C)=O)C2[C@H](OC(=O)c3ccccc3)[C@]3(O)C[C@H](OC(=O)[C@H](O)[C@H](C=C(C)C)NC(=O)OCC(C)C)C(C)=C([C@@H](O)C(=O)[C@@]21C)C3(C)C` (some centres unmarked) [Compound 4688] was < 10 nM; that for `CCOC(=O)O[C@H]1C[C@H]2OC[C@@]2(OC(C)=O)C2[C@H](OC(=O)c3ccccc3)[C@]3(O)C[C@H](OC(=O)[C@H](O)[C@@H](NC(=O)OCC(C)C)c4ccco4)C(C)=C([C@@H](O)C(=O)[C@@]21C)C3(C)C` (some centres unmarked) [Compound 4696] was < 1 nM; that for `C/C=C/C(=O)N[C@@H](c1ccco1)[C@@H](O)C(=O)O[C@H]1C[C@@]2(O)[C@@H](OC(=O)c3ccccc3)C3[C@](C)(C(=O)[C@H](O)C(=C1C)C2(C)C)[C@@H](OC(=O)OC)C[C@H]1OC[C@@]31OC(C)=O` (some centres unmarked) [Compound 4744] was < 1 nM. Turning to `C/C=C/C(=O)N[C@@H](c1cccs1)[C@@H](O)C(=O)O[C@H]1C[C@@]2(O)[C@@H](OC(=O)c3ccccc3)C3[C@](C)(C(=O)[C@H](O)C(=C1C)C2(C)C)[C@@H](OC(=O)OC)C[C@H]1OC[C@@]31OC(C)=O` (some centres unmarked) [Compound 4766], the IC50 is < 1 nM.
